PMC11198769, “Enhancement of transcription efficiency by TAR-Tat system increases the functional expression of human olfactory receptors” (PLOS ONE, 2024)
Read-outs that look alike come from different tables or passages of the source.

Experiments:
Assay in all cases: hOR assay (GloSensor cAMP luciferase), dose-response
Assay type in all cases: cell-based
[1] = biological target: T1, OR2B3 (Homo sapiens, UniProt O76000); details: OR2B3, with or without the TAR-Tat system
T1 construct: Lucy tag (N); FLAG (N); Rho tag (N); expressed in transfected cells; host or cells: Flp-In T-REx-293 cells stably expressing RTP1S, Gαolf and Ric8-b
T1 sequence (O76000 1-313): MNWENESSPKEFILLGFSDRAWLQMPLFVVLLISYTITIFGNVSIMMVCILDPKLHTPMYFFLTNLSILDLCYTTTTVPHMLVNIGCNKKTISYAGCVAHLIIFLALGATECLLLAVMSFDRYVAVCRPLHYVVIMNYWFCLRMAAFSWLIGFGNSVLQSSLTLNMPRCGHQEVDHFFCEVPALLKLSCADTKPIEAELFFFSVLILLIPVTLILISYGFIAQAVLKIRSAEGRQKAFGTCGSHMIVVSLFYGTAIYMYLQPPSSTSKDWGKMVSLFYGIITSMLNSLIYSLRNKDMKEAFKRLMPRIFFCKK

[2] = biological target: T2, OR2J3 (Homo sapiens, UniProt O76001); details: OR2J3, with and without the TAR-Tat system
T2 construct: Lucy tag (N); FLAG (N); Rho tag (N); expressed in transfected cells; host or cells: Flp-In T-REx-293 cells stably expressing RTP1S, Gαolf and Ric8-b
T2 sequence (O76001 1-311): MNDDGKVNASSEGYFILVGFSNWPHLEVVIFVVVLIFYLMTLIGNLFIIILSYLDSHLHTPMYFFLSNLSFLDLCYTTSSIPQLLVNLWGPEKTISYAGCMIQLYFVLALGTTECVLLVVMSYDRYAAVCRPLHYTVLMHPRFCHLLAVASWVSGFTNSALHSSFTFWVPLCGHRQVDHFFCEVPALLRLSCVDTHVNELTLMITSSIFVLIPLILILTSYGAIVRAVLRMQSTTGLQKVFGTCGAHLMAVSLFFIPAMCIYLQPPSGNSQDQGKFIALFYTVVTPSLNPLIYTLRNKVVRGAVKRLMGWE

[3] = biological target: T3, OR4K5 (Homo sapiens, UniProt Q8NGD3); details: OR4K5, with or without the TAR-Tat system
T3 construct: Lucy tag (N); FLAG (N); Rho tag (N); expressed in transfected cells; host or cells: Flp-In T-REx-293 cells stably expressing RTP1S, Gαolf and Ric8-b
T3 sequence (Q8NGD3 1-323): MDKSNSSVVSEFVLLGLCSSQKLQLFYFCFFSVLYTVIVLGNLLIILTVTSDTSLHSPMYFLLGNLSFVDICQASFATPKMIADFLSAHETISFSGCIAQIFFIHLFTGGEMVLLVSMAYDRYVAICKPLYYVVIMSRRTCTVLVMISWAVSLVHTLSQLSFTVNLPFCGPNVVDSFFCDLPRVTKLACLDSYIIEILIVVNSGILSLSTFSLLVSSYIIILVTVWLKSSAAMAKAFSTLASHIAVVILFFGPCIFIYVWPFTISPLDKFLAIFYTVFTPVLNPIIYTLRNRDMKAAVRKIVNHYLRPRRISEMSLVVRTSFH

[4] = biological target: T4, OR5P3 (Homo sapiens, UniProt Q8WZ94); details: for EC50: read-out: EC50 of n-hexanal concentration-response relationship
T4 construct: Lucy tag (N); FLAG (N); Rho tag (N); expressed in transfected cells; host or cells: Flp-In T-REx-293 cells stably expressing RTP1S, Gαolf and Ric8-b
T4 sequence (Q8WZ94 1-311): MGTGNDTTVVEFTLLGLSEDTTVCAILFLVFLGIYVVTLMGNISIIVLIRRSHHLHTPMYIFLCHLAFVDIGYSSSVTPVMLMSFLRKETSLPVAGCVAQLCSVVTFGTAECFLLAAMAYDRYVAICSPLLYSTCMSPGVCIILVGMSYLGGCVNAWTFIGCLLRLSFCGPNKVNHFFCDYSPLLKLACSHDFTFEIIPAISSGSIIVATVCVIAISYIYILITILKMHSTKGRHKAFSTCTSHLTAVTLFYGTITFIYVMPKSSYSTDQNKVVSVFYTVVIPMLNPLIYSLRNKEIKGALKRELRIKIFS

[5] = biological target: T5, OR8B8 (Homo sapiens, UniProt Q15620); details: OR8B8, with or without the TAR-Tat system
T5 construct: Lucy tag (N); FLAG (N); Rho tag (N); expressed in transfected cells; host or cells: Flp-In T-REx-293 cells stably expressing RTP1S, Gαolf and Ric8-b
T5 sequence (Q15620 1-311): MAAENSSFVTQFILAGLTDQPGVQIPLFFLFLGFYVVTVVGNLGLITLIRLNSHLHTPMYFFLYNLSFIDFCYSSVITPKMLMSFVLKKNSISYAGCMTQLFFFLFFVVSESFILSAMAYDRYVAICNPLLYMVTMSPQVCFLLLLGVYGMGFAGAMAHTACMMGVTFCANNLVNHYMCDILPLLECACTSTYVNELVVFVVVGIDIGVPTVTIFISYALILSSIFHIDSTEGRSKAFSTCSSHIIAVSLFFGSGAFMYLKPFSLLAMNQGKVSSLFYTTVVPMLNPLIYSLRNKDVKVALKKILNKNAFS

CCCCCC=O [n-hexanal]
concentration-dependent response to n-hexanal [1]: no concentration-dependent response
concentration-dependent response to n-hexanal [2]: concentration-dependent responses only with the TAR-Tat system
concentration-dependent response to n-hexanal [3]: no concentration-dependent response
concentration-dependent response to n-hexanal ([4]; OR5P3, with and without the TAR-Tat system): Concentration-dependent responses were observed
EC50 ([4]; OR5P3/pBApo (without TAR-Tat system)): 191 µM
EC50 ([4]; OR5P3/pHEK (with TAR-Tat system)): 672 µM
increase of maximum value of dose-response curve with the TAR-Tat system ([4]; OR5P3/pHEK versus OR5P3/pBApo): 4.1 fold
concentration-dependent response to n-hexanal [5]: no concentration-dependent response
